Drawing on the OligoGym collection, this text covers 3 h FOB score for 26 substances.

HELM strings list units from the 5' end as sugar, base in round brackets, then linkage (d deoxyribose, r ribose, m 2'-O-methyl, p phosphodiester). Strings are as the collection lists them; they lack the last nucleoside at the 3' end of the tested compound. [moe] = 2'-O-(2-methoxyethyl) (MOE); [sp] = phosphorothioate linkage; [m5C] = 5-methylcytosine

The data set addresses GFAP. In words: mouse, dose not given. The settings on record: ASO.
On to “RNA1{[moe](T)[sp].[moe](G)p.[moe](T)p.[moe](G)p.[moe]([m5C])[sp].d(T)[sp].d(T)[sp].d(T)[sp].d(A)[sp].d(G)[sp].d(T)[sp].d(G)[sp].d(A)[sp].d([m5C])[sp].d([m5C])[sp].[moe](T)p.[moe](G)p.[moe](T)[sp].[moe](G)}$$$$ (last 3' nucleoside missing)”, for which the 3 h FOB score turned out to be 5 score 0-7.

“RNA1{[moe](G)[sp].[moe](T)p.[moe](G)p.[moe](G)p.[moe](T)p.d([m5C])[sp].d([m5C])[sp].d(T)[sp].d(A)[sp].d(A)[sp].d(A)[sp].d(T)[sp].d(A)[sp].d(T)[sp].d(T)[sp].[moe]([m5C])p.[moe](T)p.[moe](A)[sp].[moe](G)}$$$$ (last 3' nucleoside missing)” showed a 3 h FOB score of 1 score 0-7.

In the case of “RNA1{[moe](G)[sp].[moe](T)p.[moe]([m5C])p.[moe](A)p.[moe]([m5C])[sp].d(A)[sp].d(T)[sp].d(T)[sp].d([m5C])[sp].d(A)[sp].d([m5C])[sp].d(T)[sp].d(A)[sp].d(A)[sp].d(T)[sp].[moe](A)p.[moe](T)p.[moe](T)[sp].[moe](T)}$$$$ (last 3' nucleoside missing)”, the 3 h FOB score was found to be 0 score 0-7.

For the substance “RNA1{[moe](G)[sp].[moe]([m5C])p.[moe](T)p.[moe](T)p.[moe](T)p.[moe](T)p.d(G)[sp].d(A)[sp].d(G)[sp].d(A)[sp].d(T)[sp].d(A)[sp].d(T)[sp].d([m5C])[sp].d(T)[sp].d(T)[sp].[moe](G)p.[moe](T)[sp].[moe](G)}$$$$ (last 3' nucleoside missing)”, the 3 h FOB score was found to be 2 score 0-7.

“RNA1{[moe](A)[sp].[moe](G)p.[moe](A)p.[moe](G)p.d(T)[sp].d(G)[sp].d(T)[sp].d(G)[sp].d(T)[sp].d(A)[sp].d(T)[sp].d(T)[sp].d(A)[sp].d(G)[sp].[moe](G)p.[moe](A)p.[moe](T)p.[moe]([m5C])[sp].[moe]([m5C])}$$$$ (last 3' nucleoside missing)” gave a 3 h FOB score of 5 score 0-7.

“RNA1{[moe](T)[sp].[moe](T)p.[moe](A)p.[moe](T)p.[moe](T)[sp].d(T)[sp].d(T)[sp].d(T)[sp].d([m5C])[sp].d([m5C])[sp].d(T)[sp].d([m5C])[sp].d(A)[sp].[moe](G)p.[moe]([m5C])p.[moe](G)[sp].[moe](A)}$$$$ (last 3' nucleoside missing)”: the 3 h FOB score worked out at 0 score 0-7.

Substance “RNA1{[moe](T)[sp].[moe](T)p.[moe](G)p.[moe](T)p.[moe](G)p.[moe](A)p.d(T)[sp].d(T)[sp].d(T)[sp].d(T)[sp].d([m5C])[sp].d([m5C])[sp].d([m5C])[sp].d([m5C])[sp].d(G)[sp].d(T)[sp].[moe]([m5C])p.[moe](T)[sp].[moe](T)}$$$$ (last 3' nucleoside missing)” yielded a 3 h FOB score of 4 score 0-7.

In the case of “RNA1{[moe]([m5C])[sp].[moe](A)p.[moe](T)p.[moe](T)p.[moe]([m5C])[sp].d(A)[sp].d([m5C])[sp].d(T)[sp].d(A)[sp].d(A)[sp].d(T)[sp].d(A)[sp].d(T)[sp].[moe](T)p.[moe](T)p.[moe](A)[sp].[moe](A)}$$$$ (last 3' nucleoside missing)”, the 3 h FOB score was 0 score 0-7.

In turn, “RNA1{[moe](G)[sp].[moe](T)p.[moe]([m5C])p.[moe](T)p.[moe](T)[sp].d(T)[sp].d(A)[sp].d(T)[sp].d(T)[sp].d(T)[sp].d(T)[sp].d(T)[sp].d([m5C])[sp].[moe]([m5C])p.[moe](T)p.[moe]([m5C])[sp].[moe](A)}$$$$ (last 3' nucleoside missing)” showed a 3 h FOB score of 4 score 0-7.

As to “RNA1{[moe](G)[sp].[moe](T)p.[moe]([m5C])p.[moe](A)p.[moe]([m5C])p.d(A)[sp].d(T)[sp].d(T)[sp].d([m5C])[sp].d(A)[sp].d([m5C])[sp].d(T)[sp].d(A)[sp].d(A)[sp].d(T)[sp].[moe](A)p.[moe](T)p.[moe](T)[sp].[moe](T)}$$$$ (last 3' nucleoside missing)”, the 3 h FOB score was found to be 0 score 0-7.

As to “RNA1{[moe](G)[sp].[moe](G)p.[moe](A)p.[moe](G)p.[moe](G)[sp].d(G)[sp].d([m5C])[sp].d(G)[sp].d(A)[sp].d(T)[sp].d(G)[sp].d(T)[sp].d(A)[sp].d(G)[sp].d(T)[sp].[moe](A)p.[moe](G)p.[moe](G)[sp].[moe](T)}$$$$ (last 3' nucleoside missing)”, the 3 h FOB score is 1 score 0-7.

As to “RNA1{[moe](T)[sp].[moe](G)p.[moe](T)p.[moe]([m5C])p.d(T)[sp].d(T)[sp].d(T)[sp].d(A)[sp].d(T)[sp].d(T)[sp].d(T)[sp].d(T)[sp].d(T)[sp].d([m5C])[sp].[moe]([m5C])p.[moe](T)p.[moe]([m5C])p.[moe](A)[sp].[moe](G)}$$$$ (last 3' nucleoside missing)”, the 3 h FOB score turned out to be 2 score 0-7.

Regarding “RNA1{[moe]([m5C])[sp].[moe](T)p.[moe](T)p.[moe](T)p.[moe](A)p.[moe](T)p.d(T)[sp].d(T)[sp].d(T)[sp].d(T)[sp].d([m5C])[sp].d([m5C])[sp].d(T)[sp].d([m5C])[sp].d(A)[sp].d(G)[sp].[moe]([m5C])p.[moe](G)[sp].[moe](A)}$$$$ (last 3' nucleoside missing)”, the 3 h FOB score is 1 score 0-7.

For the substance “RNA1{[moe](T)[sp].[moe](G)p.[moe](T)p.[moe]([m5C])p.[moe](T)[sp].d(T)[sp].d(T)[sp].d(A)[sp].d(T)[sp].d(T)[sp].d(T)[sp].d(T)[sp].d(T)[sp].[moe]([m5C])p.[moe]([m5C])p.[moe](T)[sp].[moe]([m5C])}$$$$ (last 3' nucleoside missing)”, the 3 h FOB score worked out at 1 score 0-7.

In turn, “RNA1{[moe](G)[sp].[moe](G)p.[moe]([m5C])p.[moe](T)p.[moe](T)[sp].d([m5C])[sp].d(A)[sp].d(T)[sp].d([m5C])[sp].d(T)[sp].d(G)[sp].d([m5C])[sp].d(T)[sp].d(T)[sp].d([m5C])[sp].[moe]([m5C])p.[moe](T)p.[moe](G)[sp].[moe](G)}$$$$ (last 3' nucleoside missing)” yielded a 3 h FOB score of 1 score 0-7.

With “RNA1{[moe](G)[sp].[moe]([m5C])p.[moe](A)p.[moe](G)p.d(T)[sp].d(A)[sp].d(T)[sp].d(T)[sp].d(A)[sp].d([m5C])[sp].d([m5C])[sp].d(T)[sp].d([m5C])[sp].d(T)[sp].[moe](A)p.[moe]([m5C])p.[moe](T)p.[moe](A)[sp].[moe](G)}$$$$ (last 3' nucleoside missing)”, the 3 h FOB score is 1 score 0-7.

Turning to “RNA1{[moe](T)[sp].[moe](T)p.[moe](G)p.[moe](A)p.[moe](G)[sp].d(A)[sp].d(T)[sp].d(A)[sp].d(T)[sp].d([m5C])[sp].d(T)[sp].d(T)[sp].d(G)[sp].d(T)[sp].d(G)[sp].[moe](A)p.[moe]([m5C])p.[moe]([m5C])[sp].[moe](T)}$$$$ (last 3' nucleoside missing)”, the 3 h FOB score is 4 score 0-7.

“RNA1{[moe](G)[sp].[moe](G)p.[moe](G)p.[moe]([m5C])p.[moe](A)[sp].d([m5C])[sp].d(T)[sp].d(A)[sp].d([m5C])[sp].d([m5C])[sp].d(T)[sp].d(A)[sp].d(G)[sp].d(A)[sp].d(A)[sp].[moe](T)p.[moe](A)p.[moe]([m5C])[sp].[moe](T)}$$$$ (last 3' nucleoside missing)” had a 3 h FOB score of 5 score 0-7.

On to “RNA1{[moe](T)[sp].[moe](T)p.[moe](G)p.[moe](T)p.[moe](G)[sp].d(A)[sp].d(T)[sp].d(T)[sp].d(T)[sp].d(T)[sp].d([m5C])[sp].d([m5C])[sp].d([m5C])[sp].[moe]([m5C])p.[moe](G)p.[moe](T)[sp].[moe]([m5C])}$$$$ (last 3' nucleoside missing)”, for which the 3 h FOB score turned out to be 2 score 0-7.

In turn, “RNA1{[moe]([m5C])[sp].[moe](G)p.[moe]([m5C])p.[moe](A)p.[moe](G)[sp].d([m5C])[sp].d(A)[sp].d(T)[sp].d(T)[sp].d(T)[sp].d(G)[sp].d(T)[sp].d([m5C])[sp].d(T)[sp].d(T)[sp].[moe](T)p.[moe](A)p.[moe](T)[sp].[moe](T)}$$$$ (last 3' nucleoside missing)” registered a 3 h FOB score of 5 score 0-7.

Consider “RNA1{[moe](A)[sp].[moe](G)p.[moe](T)p.[moe]([m5C])p.[moe](A)p.d(G)[sp].d([m5C])[sp].d([m5C])[sp].d(T)[sp].d(G)[sp].d(G)[sp].d(T)[sp].d(T)[sp].d(A)[sp].d(G)[sp].[moe]([m5C])p.[moe]([m5C])p.[moe](T)[sp].[moe](T)}$$$$ (last 3' nucleoside missing)”, for which the 3 h FOB score came to 4 score 0-7.

For the substance “RNA1{[moe]([m5C])[sp].[moe](G)p.[moe](G)p.[moe](A)p.[moe](T)[sp].d([m5C])[sp].d(T)[sp].d([m5C])[sp].d(T)[sp].d(T)[sp].d(T)[sp].d([m5C])[sp].d(A)[sp].d(G)[sp].d(G)[sp].[moe](G)p.[moe]([m5C])p.[moe](T)[sp].[moe](G)}$$$$ (last 3' nucleoside missing)”, the 3 h FOB score is 5 score 0-7.

In the case of “RNA1{[moe]([m5C])[sp].[moe](T)p.[moe](T)p.[moe](T)p.[moe](T)p.d(G)[sp].d(A)[sp].d(G)[sp].d(A)[sp].d(T)[sp].d(A)[sp].d(T)[sp].d([m5C])[sp].d(T)[sp].d(T)[sp].[moe](G)p.[moe](T)p.[moe](G)[sp].[moe](A)}$$$$ (last 3' nucleoside missing)”, the 3 h FOB score was found to be 0 score 0-7.

Substance “RNA1{[moe](T)[sp].[moe](T)p.[moe](G)p.[moe](T)p.d(G)[sp].d(A)[sp].d(T)[sp].d(T)[sp].d(T)[sp].d(T)[sp].d([m5C])[sp].d([m5C])[sp].d([m5C])[sp].d([m5C])[sp].[moe](G)p.[moe](T)p.[moe]([m5C])p.[moe](T)[sp].[moe](T)}$$$$ (last 3' nucleoside missing)” registered a 3 h FOB score of 0 score 0-7.

Turning to “RNA1{[moe](T)[sp].[moe](G)p.[moe](T)p.[moe]([m5C])p.[moe](T)p.[moe](T)p.d(T)[sp].d(A)[sp].d(T)[sp].d(T)[sp].d(T)[sp].d(T)[sp].d(T)[sp].d([m5C])[sp].d([m5C])[sp].d(T)[sp].[moe]([m5C])p.[moe](A)[sp].[moe](G)}$$$$ (last 3' nucleoside missing)”, the 3 h FOB score was 1 score 0-7.

With “RNA1{[moe]([m5C])[sp].[moe](T)p.[moe](T)p.[moe](G)p.[moe](T)p.d(G)[sp].d(A)[sp].d(T)[sp].d(T)[sp].d(T)[sp].d(T)[sp].d([m5C])[sp].d([m5C])[sp].d([m5C])[sp].d([m5C])[sp].[moe](G)p.[moe](T)p.[moe]([m5C])[sp].[moe](T)}$$$$ (last 3' nucleoside missing)”, the 3 h FOB score was found to be 3 score 0-7.
